The results in this text go back to patent US8653022B2, “Use of ghrelin splice variant for treating hypercholesterolemia and/or high cholesterol and/or high cholesterol complication and/or lipemia and/or lipemia complication and/or coronary heart disease and/or weight management and/or diabetes and/or hyperglycemia” (priority 2006, dated 2014).

Ends that are not written are not given here. * marks the point of attachment. Octanoyl = CCCCCCCC(=O)*

The nature of data set [1]: Serum cholesterol and lipid levels (cholesterol, triglycerides, LDL, HDL) after subcutaneous administration in 129Sv mice. The format is in vivo. The settings on record: 129Sv male mice, subcutaneous once daily, n=10 per group; for Reduced levels of cholesterol (serum cholesterol concentration): compared to vehicle-administered controls. From the text: FIG. 1A is a bar graph showing serum cholesterol concentration after subcutaneous administration of acylated ghrelin splice variant (acylated SEQ ID NO:2) or un-acylated ghrelin splice variant (SEQ ID NO:2) compared to SEQ ID NO:3 and vehicle-administered controls in 129Sv mice. Reduced levels of cholesterol in the acylated ghrelin splice variant (acylated SEQ ID NO:2) and un-acylated ghrelin splice variant (SEQ ID NO:2) treated groups were observed (5% & 6%, respectively).
(§1) Acylated ghrelin splice variant (20 μg; 29 amino acids in length (SEQ ID NO:2)) or the Vehicle (1.6% mannitol) was administered once daily for 14 successive days, via the subcutaneous (SC) route, to groups comprising n=10 129Sv male mice. No mortality occurred in any of the animals throughout the entire study period. […] All animals were subjected to terminal bleeding, under CO2 anesthesia, immediately prior to euthanasia. Terminal blood collection was performed serially as per animal number, and not as per group. • Hematology: Blood samples (at least 100 μl) were collected into pre-labeled EDTA coated tubes. The tubes were pre-labeled and contain the following information:
Study number, group number, animal number and date. The samples were kept until delivery and analysis at 2-8 ° C. Hematology parameters that were tested using Sysmex KX-21™are: WBC, RBC, HGB, HCT, MCV, MCH, MCHC, Platelets. Differential count was preformed manually. • Biochemistry: Blood for biochemistry analysis was collected into non-coated pre-labeled tubes. The tubes were pre-labeled and contained the following information: Study number, group number, animal number and date. Following clotting, the blood from each animal was centrifuged, and the serum was collected into two pre-labeled tubes and submitted for analysis as follows: Serum, 250 μl, was kept at 2-8° C. until analysis. The samples were subjected to the following listed tests using Hitachi 917 system: Creatinine, Total bilirubin, Glucose, Triglycerides, Cholesterol, HDL, LDL, Total protein, Globulin, Albumin, Urea, Potassium, Phosphorus, Calcium, Sodium, Chloride, sGOT, SGPT, ALP. • Urinalysis: Urine was collected into pre-labeled tubes (as above) from all animals (where possible) prior to and/or after euthanasia. For all surviving animals, urine collection was performed serially as per animal number, and not as per group. An attempt was made to attain the maximal amount as possible to perform the tests listed below. Urinalysis is performed using a commercial test stick (Bayer, Multistix® 10SG) applied to urine sample and evaluating the following parameters: glucose, ketone, pH value, leukocytes, blood, density, nitrite, bilirubin, urobilinogen and protein. • Necropsy Procedures and Macroscopic Examination: All animals were subjected to a fully detailed necropsy. For all surviving animals, necropsy was performed serially as per animal number, and not as per group, immediately following the scheduled terminal bleeding. At necropsy, a thorough examination is made and any abnormality or gross pathological changes in tissues and/or organs are observed and recorded. • Organ/Tissue Collection: The organs and tissues listed (Brain, Liver, Kidney, Stomach, Pancreas, Lungs, Spleen, Heart, Epididymal WAT, Retroperitoneal WAT, Interscapular BAT) were excised and weighed wet as soon as possible after excision and removal of the attached fat and other connective tissues. All organs from one animal were collected into one container, pre-labeled with the following information: Study number, group number, animal number and date. • Results: Reduced levels of cholesterol in the acylated ghrelin splice variant and un-acylated ghrelin splice variant treated groups were observed (5% & 6%, respectively; See FIG. 1A). Reduced levels of HDL in the acylated ghrelin splice variant and un-acylated ghrelin splice variant treated groups (5% & 6%, respectively; see FIG. 1B).

Data set [2] is described as follows: Plasma glucose level after 7 day treatment in 129Sv mice. The data set is classed as in vivo. The following applies: 129 male mice, 7.2 mg/kg peptide, end of study. From the text:
FIG. 3A is a bar graph showing percentage of plasma glucose reduction after 7 day treatment with acylated ghrelin splice variant peptides (acylated SEQ ID NO:2, SEQ ID NO:3 and SEQ ID NO:4) or ghrelin in 129Sv mice. The percent reduction is 3.2%; 2% and 4.8% respectively while treatment with ghrelin increased plasma glucose level by 1.3%.
FIG. 3B is a bar graph showing plasma glucose levels after 7 day treatment with acylated ghrelin splice variant peptides (acylated SEQ ID NO:2, SEQ ID NO:3 and SEQ ID NO:4) or ghrelin. 129 male mice were treated for seven days with 7.2 mg/kg peptide. Plasma glucose levels were measured at the end of the study.

Data set [3] in a line: Cumulative body weight gain after once-daily subcutaneous treatment in 129Sv mice. The data set is classed as in vivo. The following applies: male wild-type 129Sv mice, once daily for seven days, 72 mg/kg subcutaneously, n=8 per group. As for the experimental part:
FIG. 2 is a line graph showing cumulative body weight gain of un-acylated ghrelin splice variant-treated (SEQ ID NO:2) 129Sv mice compared to vehicle-treated controls. Un-acylated ghrelin splice variant reduces body weight gain in male wild-type mice (n=8 per group). In mice treated once daily for seven days with un-acylated ghrelin splice variant (72 mg/kg, subcutaneously), cumulative weight gain of the SEQ ID NO:2 group was 25% times less than the vehicle-injected control animals.

A short description of data set [4]: Mortality and clinical signs during subcutaneous administration study. The data set is classed as in vivo, 129Sv mice. The following applies: 20 μg once daily for 14 successive days, 129Sv male mice, n=10. As for the experimental part:
as §1, with “information: […]” for “information:”

Regarding “GSS (CO-C7H15) FLSPEHQRVQVRPPHKAPH (GSS(Octanoyl)FLSPEHQRVQVRPPHKAPH; listed as Homo sapiens) [SEQ ID NO:3, 22 amino acid human ghrelin splice variant, acylated]”, the “Increased levels of triglycerides” value in data set [1] (compared to vehicle) is 15%. For the same substance, the “Percentage of plasma glucose reduction” value in data set [2] worked out at 2%.

As to “GSSFLSPEHQRVQVRPPHKAPHVV (also: acylated (site not given here); listed as Homo sapiens) [SEQ ID NO:4, acylated 24 amino acid human ghrelin splice variant]”, the “Percentage of plasma glucose reduction” value in data set [2] was determined as 4.8%.

As to “GSSFLSPEHQRVQVRPPHKAPHVVPALPL (listed as Homo sapiens) [un-acylated ghrelin splice variant, 29 amino acid human ghrelin splice variant, un-acylated]”, in data set [1] (compared to vehicle), the “Level of triglycerides (in words)” value was “remained unchanged” and the “Reduced levels of HDL” value was 6%. Moreover, in data set [1], the “Reduced levels of cholesterol (serum cholesterol concentration)” value is listed as 6%. For the same substance, the “Cumulative weight gain less than the vehicle-injected control animals” value in data set [3] is recorded as 25%.

Consider “GSSFLSPEHQRVQVRPPHKAPHVVPALPL (not fully specified; listed as Homo sapiens) [acylated SEQ ID NO:2, 29 amino acid human ghrelin splice variant, acylated]”, for which, in data set [1] (compared to vehicle), the “Increased levels of triglycerides” value is listed as 9% and the “LDL levels (in words)” value is “remained unchanged”. In data set [1] (compared to vehicle, listed as acylated ghrelin splice variant), the “Reduced levels of HDL” value came to 5%. Besides, the “Reduced levels of cholesterol (serum cholesterol concentration)” value in data set [1] (listed as acylated ghrelin splice variant) is 5%. Besides, in data set [2], the “Percentage of plasma glucose reduction” value worked out at 3.2%. In data set [4], the Clinical signs entry was “No clinical signs” and the Mortality entry was “No mortality”.

Take “ghrelin: polypeptide of GenBank NP_057446; mature 28 amino acid peptide bearing n-octanoyl on the third serine (GSS(Octanoyl)FLSPEHQRVQQRKESKKPPAKLQPR; UniProt Q9UBU3 24-51, looked up) [reference compound]”: the “Increase of plasma glucose level” value in data set [2] was 1.3%.
